Assay results reported in patent US11767319B2, “Crystalline forms of a selective c-kit kinase inhibitor” (Third Harmonic Bio, Inc., priority 2020, dated 2023).

Columns and labels:
Type in all cases: physicochemical
[1] = Form investigation in buffered media; conditions: for XRPD Pattern / pH (24 h): 24 h at 25° C.
Experimental: To investigate the polymorphic landscape of compound 1 in buffered systems, 5×20 mg of Form A slurries and 5×20 mg of amorphous slurries (amorphous material prepared using the method described in the above hydration mapping experiments) were prepared by adding 1 mL of buffer to each vial and the resulting slurries were agitated for 24 h at 25° C. The pH was measured post-buffer addition and after 24 h agitation. After 24 h, aliquots of solid were isolated via centrifugal filtration and analysed by XRPD.

[2] = Hydration mapping starting with amorphous compound 1
Experimental: To establish the hydration map of compound 1, solutions with varying water activity (aw) were prepared and the aw was measured using a water activity meter. Table 13 below details the solvent systems investigated and their corresponding measured water activities.
To prepare amorphous material, 480 mg of Form A of compound 1 was weighed into a vial before being dissolved in 24 mL 1,4-dioxane. The resulting solution was then split evenly between 24 vials before being placed in the chamber of a freeze dryer at −50° C. to completely freeze the samples. The samples were then freeze dried overnight (approx. 18 h) and fluffy off-white solids were recovered. A small sub-sample of solid from one vial was analyzed by XRPD to confirm that amorphization had occurred. Using the other 23 vials of amorphous material, 1 mL of the solutions prepared above was added to each vial to prepare slurries. As before, where solutions were observed a brief manual agitation, an additional ˜10 to 20 mg of amorphous material was added to prepare a slurry. Additional solid was added to the 2-MeTHF, acetone/water (aw of 0.14 and 0.28), methanol/water (aw of 0.11) and acetonitrile/water (aw of 0.11) samples. All slurries were then agitated for 72 h at 25° C. After 72 h, aliquots of solid were isolated via centrifugal filtration and analyzed by XRPD.

[3] = Ethanol/hydrocarbon mixtures slurry study
Experimental: Using the methods described above for the Form A input and amorphous input experiments, 5×20 mg of Form A slurries and 5×20 mg of amorphous input slurries were prepared by adding 1 mL of solvent (see Table 16 below) to each vial and the resulting slurries were agitated for 24 h at 25° C. After 24 h, aliquots of solid were isolated via centrifugal filtration and analysed by XRPD.

Structure (SMILES): Cc1ccc(-c2noc([C@H]3C[C@@H]3F)n2)cc1NC(=O)c1cnc2ccccn12 [Amorphous Compound 1, N-(5-(5-((1R,2S)-2-fluorocyclopropyl)-1,2,4-oxadiazol-3-yl)-2-methylphenyl)imidazo[1,2-a]pyridine-3-carboxamide]
- XRPD Pattern ([1]; NaOH (0.2M)): Form C
- XRPD Pattern ([1]; pH 1.2 (HCl—KCl)): HCl Salt Form
- XRPD Pattern ([1]; pH 4.5 (acetate)): Form F
- XRPD Pattern ([1]; pH 6.8 (phosphate)): Form C
- XRPD Pattern ([1]; pH 8 (PBS)): Form H^B
- pH (Post-Buffer Addition) ([1]; slurry in NaOH (0.2M)): 11.97
- pH (24 h) ([1]; slurry in NaOH (0.2M)): 11.87
- pH (Post-Buffer Addition) ([1]; slurry in pH 1.2 (HCl—KCl)): 1.21
- pH (24 h) ([1]; slurry in pH 1.2 (HCl—KCl)): 1.21
- pH (Post-Buffer Addition) ([1]; slurry in pH 4.5 (acetate)): 4.53
- pH (24 h) ([1]; slurry in pH 4.5 (acetate)): 4.55
- pH (Post-Buffer Addition) ([1]; slurry in pH 6.8 (phosphate)): 6.85
- pH (24 h) ([1]; slurry in pH 6.8 (phosphate)): 6.87
- pH (Post-Buffer Addition) ([1]; slurry in pH 8 (PBS)): 8.01
- pH (24 h) ([1]; slurry in pH 8 (PBS)): 8.11
- XRPD pattern observed, 72 h ([2]; 2-MeTHF, aw 0.0378, 25° C.): Forms A, H^A and D
- XRPD pattern observed, 72 h ([2]; Acetone/Water, aw 0.1363, 25° C.): Form H^A
- XRPD pattern observed, 72 h ([2]; Acetone/Water, aw 0.2621, 25° C.): Form H^A
- XRPD pattern observed, 72 h ([2]; Acetone/Water, aw 0.5455, 25° C.): Form H^A
- XRPD pattern observed, 72 h ([2]; Acetone/Water, aw 0.7082, 25° C.): Form H^A
- XRPD pattern observed, 72 h ([2]; Acetone/Water, aw 0.9439, 25° C.): Form H^A and possibly Form C
- XRPD pattern observed, 72 h ([2]; EtOH/Heptane, aw 0.0300, 25° C.): Form E
- XRPD pattern observed, 72 h ([2]; EtOH/Water, aw 0.1580, 25° C.): Form H^A
- XRPD pattern observed, 72 h ([2]; EtOH/Water, aw 0.3377, 25° C.): Form H^A
- XRPD pattern observed, 72 h ([2]; EtOH/Water, aw 0.4986, 25° C.): Form H^A
- XRPD pattern observed, 72 h ([2]; EtOH/Water, aw 0.7600, 25° C.): Form A and Form H^A and additional peaks
- XRPD pattern observed, 72 h ([2]; EtOH/Water, aw 0.9005, 25° C.): Form A and Form H^A and additional peaks
- XRPD pattern observed, 72 h ([2]; MeCN/Water, aw 0.1060, 25° C.): Form H^A
- XRPD pattern observed, 72 h ([2]; MeCN/Water, aw 0.3664, 25° C.): Form H^A
- XRPD pattern observed, 72 h ([2]; MeCN/Water, aw 0.5573, 25° C.): Form H^A
- XRPD pattern observed, 72 h ([2]; MeCN/Water, aw 0.7300, 25° C.): Form H^A
- XRPD pattern observed, 72 h ([2]; MeCN/Water, aw 0.8946, 25° C.): Form H^A
- XRPD pattern observed, 72 h ([2]; MeOH/Water, aw 0.0963, 25° C.): Form H^A
- XRPD pattern observed, 72 h ([2]; MeOH/Water, aw 0.3242, 25° C.): Form H
- XRPD pattern observed, 72 h ([2]; MeOH/Water, aw 0.5145, 25° C.): Form H^A
- XRPD pattern observed, 72 h ([2]; MeOH/Water, aw 0.6965, 25° C.): Form H^A
- XRPD pattern observed, 72 h ([2]; MeOH/Water, aw 0.9294, 25° C.): Form C
- XRPD pattern observed, 72 h ([2]; Water/2-MeTHF, aw 0.5286, 25° C.): Form H^A
- XRPD pattern observed ([3]; EtOH/Cyclohexane (50:50% v/v), aw 0.025, 24 h at 25° C.): Form E
- XRPD pattern observed ([3]; EtOH/Dodecane (50:50% v/v), aw 0.024, 24 h at 25° C.): Form H^A
- XRPD pattern observed ([3]; EtOH/Hexane (50:50% v/v), aw 0.018, 24 h at 25° C.): Form E
- XRPD pattern observed ([3]; EtOH/Methylcyclohexane (50:50% v/v), aw 0.019, 24 h at 25° C.): Form E
- XRPD pattern observed ([3]; EtOH/Octane (50:50% v/v), aw 0.019, 24 h at 25° C.): Form E
